What was measured:
[1] = test system: 22Rv1 prostate cancer cell line; test: Antiproliferative cell assay (CellTiter-Glo), 22Rv1; type: cell-based, human; conditions: Homo sapiens, 22Rv1, 48 h, 48 h exposure, read-out: IC50 against prostate cancer cell line 22 Rv1
Protocol: (§1) Cell Culture Materials. The 22Rv1, DU145, LNCaP and PC3 prostate cancer cell lines were obtained from American Type Culture Collection (ATCC, Rockville, Md.). The LNCaP-AR and Hi-Myc cell lines were a kind donation by Dr. C. Sawyers (David Geffen School of Medicine, UCLA, Los Angeles, Calif.). DU145, 22Rv1, LNCaP, LNCaP-AR, and PC3 cells were grown in RPMI 1640; Hi-Myc cells were grown in Isecove's Modified Dulbecco's Medium. All media contained 10% fetal bovine serum (FBS) in the presence of 100 U/mL penicillin and 0.1 g/L streptomycin. RWPE-1 prostate cells were grown in Defined Keratinocyte Serum Free Medium (DKSFM) containing epidermal growth factor (EGF), insulin and fibroblast growth factor (FGF). Cells were incubated at 37° C. with 95% air and 5% CO2. All cells were maintained below passage 20 and used in experiments during the linear phase of growth.
(§2) Proliferation was measured utilizing the CellTiter-Glo® Luminescent Cell Viability Assay (Technical Bulletin #288, Promega Corp., Madison, Wis.). When added to cells, the assay reagent produces luminescence in the presence of ATP from viable cells. Cells were plated in 96-well plates at a density of 10,000 cells/well and incubated for 24 hours. Test samples were solubilized in DMSO by sonication, filter sterilized and diluted with media to the desired treatment concentration. Cells were treated with 100 μLcontrol media, vehicle control (DMSO<0.2% of total) or test samples and incubated for 48 h drug exposure duration at 6.25, 12.5, 25, 50 and 100 μg/mL concentrations. At the end of 48 h, plates were equilibrated at room temperature for 30 min; 100 μL of the assay reagent was added to each well and cell-lysis was induced on an orbital shaker for 2 min. Plates were incubated at room temperature for 10 min to stabilize the luminescence signal and results were read on an Orion Microplate Luminometer (Bertholds Detection Systems, Pforzheim, Germany). All plates had control wells containing medium without cells to obtain a value for background luminescence. Data are expressed as percentage of untreated cells (i.e. treatment value-blank/vehicle value-blank), mean±SE for three replications.

[2] = test system: DU145 prostate cancer cell line; test: Antiproliferative cell assay (CellTiter-Glo), DU145; type: cell-based, human; conditions: Homo sapiens, DU-145, 48 h exposure, read-out: IC50 against prostate cancer cell line DU145
Protocol: as §1, §2

[3] = test system: Hi-Myc prostate cancer cell line; test: Antiproliferative cell assay (CellTiter-Glo), Hi-Myc; type: cell-based; conditions: Hi-Myc (mouse), 48 h exposure, read-out: IC50 against prostate cancer cell line HiMyc
Protocol: as §1, §2

[4] = test system: LNCaP prostate cancer cell line; test: Antiproliferative cell assay (CellTiter-Glo), LNCaP; type: cell-based, human; conditions: Homo sapiens, 48 h exposure, read-out: IC50 against prostate cancer cell line LNCaP
Protocol: as §1, §2

[5] = test system: LNCaP-AR prostate cancer cell line; test: Antiproliferative cell assay (CellTiter-Glo), LNCaP-AR; type: cell-based, human; conditions: Homo sapiens, 48 h exposure, read-out: IC50 against prostate cancer cell line LNCap-AR
Protocol: as §1, §2

[6] = test system: PC3 prostate cancer cell line; test: Antiproliferative cell assay (CellTiter-Glo), PC3; type: cell-based, human; conditions: Homo sapiens, 48 h exposure, read-out: IC50 against prostate cancer cell line PC3
Protocol: as §1, §2

22Rv1 cells = test: Assessment of apoptosis (Cell Death Detection ELISA), 22Rv1; type: cell-based, human; conditions: 48 h, p=0.05
Protocol: (§3) Assessment of apoptosis. Apoptosis was assessed utilizing the Cell Death Detection ELISAPLUS Assay (Boehringer Mannheim, Indianapolis, Ind.). This assay is a photometric enzyme-linked immunoassay that quantitatively measures the internucleosomal degradation of DNA, which occurs during apoptosis. Specifically, the assay detects histone associated mono- and oligonucleosomes, which are indicators of apoptosis. Cells (22RV1, PC-3, LNCaP, LNCaP-AR), were plated in 60 mm dishes at a density of 100,000 cells/dish and allowed to attach for 24 hours. Cells were treated with vehicle control (100% DMSO; 0.3% final concentration), or urolithin B (0-50 μg/mL or 0-236 μM) for 48 hours. Following treatments, non-adherent cells were collected and pelleted at 200×g for ten minutes. The supernatant was discarded; the cell pellet was washed with cold CMF-PBS and re-centrifuged. […] Both live and dead cells were then counted via trypan blue exclusion (Pierce, Rockford, Ill.) and equal numbers of cells were added to the microtiter plate for all treatment groups and apoptosis assay was performed according to the manufacturer's instructions. Data are expressed as absorbance at 405 nm of each sample over vehicle controls as follows=treatment value-blank/vehicle value-blank.

PC3 cells = test: Assessment of apoptosis (Cell Death Detection ELISA), PC3; type: cell-based, human; conditions: 48 h, p=0.05
Protocol: as §3

LNCaP cells = test: Assessment of apoptosis (Cell Death Detection ELISA), LNCaP; type: cell-based, human; conditions: 48 h, p=0.01
Protocol: as §3

LNCaP-AR cells = test: Assessment of apoptosis (Cell Death Detection ELISA), LNCaP-AR; type: cell-based, human; conditions: 48 h, p=0.01
Protocol: as §3

[7] = test system: human colon cancer cell line HCT-116; test: Antiproliferative activity against colon cancer cells (CellTiter-Glo); type: cell-based; conditions: 100 μg/mL, 48 hrs
Protocol: (§4) EA and EA-metabolites (gallic and gallagic acids, urolithin B and methylated-urolithin A) were evaluated for antiproliferative activity against the human colon cancer cell line HCT-116. The cells were grown to a concentration of 10,000 cells per well in a 96 well format; and were then resuspended in medium containing vehicle control or the indicated compound: Ellagic acid, urolithin A, methyl urolithin A, or urolithin B, at a concentration of 100 μg/mL. The cells were incubated for 48 hrs, and the viability assayed by the CellTiter-Glo® Luminescent Cell Viability Assay (Technical Bulletin #288, Promega Corp., Madison, Wis.).

[8] = test system: human pancreatic cancer cell line ASPC-1; test: Antiproliferative activity against pancreatic cancer cells (CellTiter-Glo), ASPC-1; type: cell-based; conditions: 100 μg/mL, 48 hrs
Protocol: as §4, with “pancreatic” for “colon”, “lines ASPC-1 and BXPC-3.” for “line HCT-116.”, “well;” for “well in a 96 well format;”, “containing the” for “containing”, “byCellTiter-Glo®” for “by the CellTiter-Glo®”

[9] = test system: human pancreatic cancer cell line BXPC-3; test: Antiproliferative activity against pancreatic cancer cells (CellTiter-Glo), BXPC-3; type: cell-based; conditions: 100 μg/mL, 48 hrs
Protocol: as §4, with “pancreatic” for “colon”, “lines ASPC-1 and BXPC-3.” for “line HCT-116.”, “well;” for “well in a 96 well format;”, “containing the” for “containing”, “byCellTiter-Glo®” for “by the CellTiter-Glo®”

IC50 [1]: 118 µM
IC50 [2]: 59.4 µM
IC50 [3]: 59.9 µM
IC50 [4]: 90.5 µM
IC50 [5]: 28.5 µM
IC50 [6]: 127 µM
Compound: O=c1oc2cc(O)ccc2c2ccccc12 [Urolithin B, 3-hydroxy-6H-dibenzo[b,d]pyran-6-one]
concentration showing statistically significant pro-apoptotic effect (22Rv1 cells): 59 µM
concentration showing statistically significant pro-apoptotic effect (PC3 cells): 29.5 µM
concentration showing statistically significant pro-apoptotic effect (LNCaP cells): 118 µM
concentration showing statistically significant pro-apoptotic effect (LNCaP-AR cells): 59 µM
anti-proliferative activity, rank order [7]: urolithin A is the most active, then ellagic acid, urolithin B and methyl urolithin A
anti-proliferative activity, rank order [8]: urolithin A is the most active, then ellagic acid, urolithin B and methyl urolithin A
anti-proliferative activity, rank order [9]: urolithin A is the most active, then ellagic acid, urolithin B and methyl urolithin A
